Laboratory results as given in ChEMBL document CHEMBL1201862, “PubChem BioAssay data set” (2004).
Activity calls are given as the source filed them. Unless noted, the calls are words filed in the database; no cut-off is given here.

Legend:
[1] = biological target: T1, Caspase-3 (Homo sapiens, UniProt P42574); assay: inhibition of recombinant caspase-3 activity – biochemical, luminescence, set 2, selectivity assay for SENP protease inhibitor project, SAR follow-up (AID 588599); assay type: functional
T1 sequence (P42574 whole entry): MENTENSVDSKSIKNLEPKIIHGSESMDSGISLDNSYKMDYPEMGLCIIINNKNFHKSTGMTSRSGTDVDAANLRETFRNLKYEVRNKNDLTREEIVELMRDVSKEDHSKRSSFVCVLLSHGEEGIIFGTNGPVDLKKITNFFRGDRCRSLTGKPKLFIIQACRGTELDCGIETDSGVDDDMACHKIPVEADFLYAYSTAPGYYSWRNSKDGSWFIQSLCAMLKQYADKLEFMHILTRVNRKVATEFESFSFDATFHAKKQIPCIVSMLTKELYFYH

[2] = biological target: T2, Sentrin-specific protease 6 (Homo sapiens, UniProt Q9GZR1); assay: inhibition of human SENP6 catalytic domain – biochemical, luminescence, set 2, SAR follow-up (AID 588598); assay type: functional
T2 sequence (Q9GZR1 whole entry): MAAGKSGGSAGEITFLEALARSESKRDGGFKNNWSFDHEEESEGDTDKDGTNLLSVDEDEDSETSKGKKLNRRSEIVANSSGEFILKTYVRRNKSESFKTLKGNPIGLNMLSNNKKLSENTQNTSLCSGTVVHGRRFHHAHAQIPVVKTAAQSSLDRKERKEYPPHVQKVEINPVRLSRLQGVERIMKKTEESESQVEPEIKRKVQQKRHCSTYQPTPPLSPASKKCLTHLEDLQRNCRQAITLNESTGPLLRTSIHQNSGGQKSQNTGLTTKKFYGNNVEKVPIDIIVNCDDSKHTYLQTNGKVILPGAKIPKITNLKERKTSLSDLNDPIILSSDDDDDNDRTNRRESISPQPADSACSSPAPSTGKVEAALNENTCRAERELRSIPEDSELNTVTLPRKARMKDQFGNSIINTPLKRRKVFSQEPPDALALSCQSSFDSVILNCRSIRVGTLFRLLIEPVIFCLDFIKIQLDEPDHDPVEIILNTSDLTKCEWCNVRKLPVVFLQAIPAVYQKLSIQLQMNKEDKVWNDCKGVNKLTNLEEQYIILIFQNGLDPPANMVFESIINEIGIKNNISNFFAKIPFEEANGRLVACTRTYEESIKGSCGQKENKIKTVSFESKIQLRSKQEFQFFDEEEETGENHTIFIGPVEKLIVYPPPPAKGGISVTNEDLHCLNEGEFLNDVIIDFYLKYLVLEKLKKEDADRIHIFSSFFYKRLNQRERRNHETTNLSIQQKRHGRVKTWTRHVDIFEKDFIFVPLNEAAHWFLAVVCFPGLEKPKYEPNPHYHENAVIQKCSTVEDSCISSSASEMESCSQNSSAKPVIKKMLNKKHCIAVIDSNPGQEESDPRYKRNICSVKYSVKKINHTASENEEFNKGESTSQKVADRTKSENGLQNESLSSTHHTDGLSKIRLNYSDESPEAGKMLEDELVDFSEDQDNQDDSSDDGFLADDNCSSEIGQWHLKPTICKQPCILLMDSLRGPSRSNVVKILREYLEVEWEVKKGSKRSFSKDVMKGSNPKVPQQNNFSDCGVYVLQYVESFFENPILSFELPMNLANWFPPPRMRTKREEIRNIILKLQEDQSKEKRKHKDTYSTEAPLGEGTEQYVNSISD

[3] = biological target: T3, Sentrin-specific protease 8 (Homo sapiens, UniProt Q96LD8); assay: inhibition of sentrin protease 8 – biochemical, luminescence, set 2, SAR follow-up (AID 588601); assay type: functional
T3 sequence (Q96LD8 whole entry): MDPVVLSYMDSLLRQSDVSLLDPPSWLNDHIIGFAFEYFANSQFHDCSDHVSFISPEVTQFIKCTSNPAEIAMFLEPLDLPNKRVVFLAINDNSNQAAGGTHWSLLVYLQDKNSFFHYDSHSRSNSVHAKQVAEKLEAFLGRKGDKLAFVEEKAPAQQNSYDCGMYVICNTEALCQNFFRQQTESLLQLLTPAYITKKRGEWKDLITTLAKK

[4] = biological target: T4, Sentrin-specific protease 7 (Homo sapiens, UniProt Q9BQF6); assay: inhibition of human SENP7 cleavage activity – biochemical, luminescence, set 2, SAR follow-up (AID 588600); assay type: functional
T4 sequence (Q9BQF6 whole entry): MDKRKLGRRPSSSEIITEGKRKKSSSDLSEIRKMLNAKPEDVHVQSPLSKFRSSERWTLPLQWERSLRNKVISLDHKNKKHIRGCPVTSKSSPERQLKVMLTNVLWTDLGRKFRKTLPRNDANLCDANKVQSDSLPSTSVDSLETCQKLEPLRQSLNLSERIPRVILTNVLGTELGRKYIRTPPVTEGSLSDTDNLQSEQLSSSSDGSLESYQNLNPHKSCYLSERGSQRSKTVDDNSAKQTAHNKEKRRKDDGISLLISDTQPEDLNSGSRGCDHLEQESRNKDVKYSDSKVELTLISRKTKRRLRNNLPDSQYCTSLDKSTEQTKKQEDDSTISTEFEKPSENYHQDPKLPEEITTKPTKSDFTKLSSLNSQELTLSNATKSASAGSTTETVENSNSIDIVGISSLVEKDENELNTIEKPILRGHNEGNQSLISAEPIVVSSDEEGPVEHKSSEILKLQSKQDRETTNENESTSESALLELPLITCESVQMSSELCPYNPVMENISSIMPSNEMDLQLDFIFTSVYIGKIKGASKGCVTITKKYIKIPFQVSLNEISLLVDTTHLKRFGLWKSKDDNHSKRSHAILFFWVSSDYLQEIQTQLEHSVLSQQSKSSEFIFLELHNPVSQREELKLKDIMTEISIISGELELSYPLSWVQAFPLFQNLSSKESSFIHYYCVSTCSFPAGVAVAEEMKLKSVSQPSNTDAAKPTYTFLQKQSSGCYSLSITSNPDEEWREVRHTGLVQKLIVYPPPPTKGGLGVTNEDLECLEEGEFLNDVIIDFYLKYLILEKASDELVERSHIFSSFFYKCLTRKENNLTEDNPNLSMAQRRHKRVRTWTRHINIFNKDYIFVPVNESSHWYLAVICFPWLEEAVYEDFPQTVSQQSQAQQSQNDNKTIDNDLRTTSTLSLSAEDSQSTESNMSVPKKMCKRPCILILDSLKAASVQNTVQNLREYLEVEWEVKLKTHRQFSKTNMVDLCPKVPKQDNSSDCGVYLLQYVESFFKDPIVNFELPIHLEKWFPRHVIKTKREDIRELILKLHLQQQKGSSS

[5] = biological target: T5, Botulinum neurotoxin type F (Clostridium botulinum, UniProt P30996); assay: High-throughput multiplex microsphere dose response for inhibitors of toxin protease, specifically Botulinum neurotoxin light chain F protease, compounds from Powder Set 01.; assay type: functional, Clostridium botulinum Bf; conditions: read-out: EC50_MICROM
T5 sequence (P30996 1-436 limits assumed): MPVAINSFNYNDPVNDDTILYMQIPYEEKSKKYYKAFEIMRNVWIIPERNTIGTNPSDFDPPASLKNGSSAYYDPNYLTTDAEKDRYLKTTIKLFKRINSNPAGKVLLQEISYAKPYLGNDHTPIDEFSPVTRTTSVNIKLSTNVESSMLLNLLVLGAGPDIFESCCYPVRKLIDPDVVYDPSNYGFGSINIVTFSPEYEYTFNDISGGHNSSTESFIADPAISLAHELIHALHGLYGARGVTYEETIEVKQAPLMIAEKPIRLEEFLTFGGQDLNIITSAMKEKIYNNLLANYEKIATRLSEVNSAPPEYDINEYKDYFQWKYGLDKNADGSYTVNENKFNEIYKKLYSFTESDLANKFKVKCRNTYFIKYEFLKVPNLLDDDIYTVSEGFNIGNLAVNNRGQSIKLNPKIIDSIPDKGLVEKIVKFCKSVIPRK

[6] = biological target: Beta Lactamase (Pseudomonas aeruginosa, UniProt Q932Y6); assay: BLA reporter interference, concentration series – BLA reporter cells, FRET fluorescence, artefact control for TLR9-MyD88 binding inhibitor project, dose response (AID 588341); assay type: cell-based;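 further: cell based assay in CHO-K1 cells stably expressing beta-lactamase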
Beta Lactamase, sequence (Q932Y6 whole entry): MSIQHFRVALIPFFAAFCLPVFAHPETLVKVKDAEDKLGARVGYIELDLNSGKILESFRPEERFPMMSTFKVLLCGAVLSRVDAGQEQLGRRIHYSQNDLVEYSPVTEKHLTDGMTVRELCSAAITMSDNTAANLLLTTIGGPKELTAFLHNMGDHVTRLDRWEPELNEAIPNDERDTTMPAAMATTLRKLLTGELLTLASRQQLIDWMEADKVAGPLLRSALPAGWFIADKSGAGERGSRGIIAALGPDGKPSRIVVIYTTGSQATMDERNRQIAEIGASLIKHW

[7] = biological target: Sphingosine 1-phosphate receptor 3 (Homo sapiens, UniProt Q99500); assay: Dose response cell-based high throughput screening assay for antagonists of the Sphingosine 1-Phosphate Receptor 3 (S1P3). [Related pubchem assays: 1429, 485 ]; assay type: functional
Sphingosine 1-phosphate receptor 3, sequence (Q99500 whole entry, the tested form may be a part): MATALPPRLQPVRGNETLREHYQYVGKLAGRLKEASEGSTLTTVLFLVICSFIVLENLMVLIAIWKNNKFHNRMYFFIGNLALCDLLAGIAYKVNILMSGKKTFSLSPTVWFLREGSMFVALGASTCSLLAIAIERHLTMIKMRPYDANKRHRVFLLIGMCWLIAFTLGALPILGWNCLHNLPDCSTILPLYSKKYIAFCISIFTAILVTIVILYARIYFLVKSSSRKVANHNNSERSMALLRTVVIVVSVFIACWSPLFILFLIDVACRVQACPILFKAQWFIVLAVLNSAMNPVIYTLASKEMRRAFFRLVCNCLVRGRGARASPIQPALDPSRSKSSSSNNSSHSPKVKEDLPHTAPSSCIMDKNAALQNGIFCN

[8] = tested on: CHO; assay: CHO cell viability loss, potency – luminescence, cytotoxicity control for TLR9-MyD88 binding inhibitor project, dose response (AID 588339); assay type: functional, cell-based, hamster; conditions: Cricetulus griseus;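 further: CHO cells stably coexpressing TLR9 and MyD88 fusions from primary screen; compound exposure lasted 48 hours before viability readout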
[9] = biological target: T6, Botulinum neurotoxin type A (Clostridium botulinum (strain Hall / ATCC 3502 / NCTC 13319 / Type A), UniProt P0DPI1); assay: High-throughput multiplex microsphere dose response for inhibitors of toxin protease, specifically Botulinum neurotoxin light chain A protease, compounds from Powder Set 01.; assay type: functional, Clostridium botulinum A str. ATCC 3502; conditions: read-out: EC50_MICROM
T6 sequence (P0DPI1 2-448 limits assumed): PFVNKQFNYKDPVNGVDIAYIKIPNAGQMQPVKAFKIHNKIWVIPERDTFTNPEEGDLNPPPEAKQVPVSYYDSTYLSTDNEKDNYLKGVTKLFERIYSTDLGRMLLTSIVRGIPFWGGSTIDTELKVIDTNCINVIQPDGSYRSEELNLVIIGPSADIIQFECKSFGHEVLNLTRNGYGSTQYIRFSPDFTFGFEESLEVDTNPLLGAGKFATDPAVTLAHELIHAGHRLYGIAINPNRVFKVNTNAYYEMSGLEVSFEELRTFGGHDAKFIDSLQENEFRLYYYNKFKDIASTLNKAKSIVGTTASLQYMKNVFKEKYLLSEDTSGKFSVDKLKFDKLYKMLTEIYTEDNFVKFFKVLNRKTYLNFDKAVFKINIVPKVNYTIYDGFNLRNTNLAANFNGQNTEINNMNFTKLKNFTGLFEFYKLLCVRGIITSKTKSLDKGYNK

[10] = biological target: T6, Botulinum neurotoxin type A; assay: High-throughput multiplex microsphere dose response for inhibitors of toxin protease, specifically Botulinum neurotoxin light chain A protease, compounds from Cherry Pick 01.; assay type: functional; conditions: read-out: EC50_MICROM
[11] = biological target: 5-hydroxytryptamine receptor 1E (Homo sapiens, UniProt P28566); assay: Counterscreen assay for S1P3 antagonists: Dose response cell-based high throughput screening assay to identify antagonists of the 5-Hydroxytryptamine Receptor Subtype 1E (5HT1E). [Related pubchem assays: 1429, 485 ]; assay type: functional
5-hydroxytryptamine receptor 1E, sequence (P28566 whole entry): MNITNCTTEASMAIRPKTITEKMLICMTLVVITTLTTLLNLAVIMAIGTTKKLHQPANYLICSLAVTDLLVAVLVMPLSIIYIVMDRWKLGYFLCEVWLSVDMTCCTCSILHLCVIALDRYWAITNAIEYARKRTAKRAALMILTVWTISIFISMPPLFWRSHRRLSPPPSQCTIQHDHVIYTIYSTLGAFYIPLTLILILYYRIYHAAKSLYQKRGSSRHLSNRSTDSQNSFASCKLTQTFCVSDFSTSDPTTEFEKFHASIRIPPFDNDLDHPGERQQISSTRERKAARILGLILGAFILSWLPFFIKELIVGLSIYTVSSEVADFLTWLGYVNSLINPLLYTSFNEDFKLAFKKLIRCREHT

[12] = biological target: G-protein coupled receptor 55 (Homo sapiens, UniProt Q9Y2T6); assay: selective activators of receptor GPR55 – imaging, U2OS cells, beta-arrestin-GFP redistribution, primary screen (AID 1961); assay type: functional
G-protein coupled receptor 55, sequence (Q9Y2T6 whole entry): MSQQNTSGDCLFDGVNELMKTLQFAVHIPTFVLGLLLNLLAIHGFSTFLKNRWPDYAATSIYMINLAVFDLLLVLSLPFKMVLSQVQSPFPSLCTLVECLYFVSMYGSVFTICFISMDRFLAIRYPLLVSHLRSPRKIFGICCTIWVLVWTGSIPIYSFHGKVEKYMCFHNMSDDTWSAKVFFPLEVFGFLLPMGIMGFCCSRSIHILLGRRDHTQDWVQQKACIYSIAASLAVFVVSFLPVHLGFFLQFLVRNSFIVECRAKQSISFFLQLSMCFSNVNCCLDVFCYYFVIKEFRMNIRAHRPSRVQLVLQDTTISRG

[13] = biological target: T5, Botulinum neurotoxin type F; assay: High-throughput multiplex microsphere dose response for inhibitors of toxin protease, specifically Botulinum neurotoxin light chain F protease, compounds from Cherry Pick 01.; assay type: functional; conditions: read-out: EC50_MICROM
[14] = biological target: T6, Botulinum neurotoxin type A; assay: Confirmatory FRET assay using full length substrates for Botulinum neurotoxin light chain A protease, with Powder Set01.; assay type: functional
[15] = biological target: Platelet-activating factor acetylhydrolase (Mus musculus, UniProt Q60963); assay: Late stage assay provider results from the probe development effort to identify inhibitors of plasma platelet activating factor acetylhydrolase (pPAFAH): fluorescence-based dose response biochemical gel-based competitive Activity-Based Protein Profiling (ABPP) assay for HTS compounds. [Related pubchem assays (depositor defined):AID463082, AID463092, AID463230, AID588474]; assay type: cell-free
Platelet-activating factor acetylhydrolase, sequence (Q60963 whole entry): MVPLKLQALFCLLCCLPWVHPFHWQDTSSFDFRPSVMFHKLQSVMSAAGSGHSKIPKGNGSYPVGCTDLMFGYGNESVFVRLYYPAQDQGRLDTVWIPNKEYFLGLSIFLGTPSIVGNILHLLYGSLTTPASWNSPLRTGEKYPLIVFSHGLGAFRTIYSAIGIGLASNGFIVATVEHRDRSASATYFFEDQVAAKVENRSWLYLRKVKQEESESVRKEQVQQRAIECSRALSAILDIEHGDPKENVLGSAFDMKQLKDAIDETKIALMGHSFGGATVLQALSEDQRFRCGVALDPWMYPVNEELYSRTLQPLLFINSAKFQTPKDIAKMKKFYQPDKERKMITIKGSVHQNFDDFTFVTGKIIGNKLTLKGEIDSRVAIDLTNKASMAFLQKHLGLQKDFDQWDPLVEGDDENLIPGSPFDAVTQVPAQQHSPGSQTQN

Structure (SMILES): O=S(=O)(c1ccc2[nH]cc(/C=N\NC(=S)Nc3cccc(Cl)c3)c2c1)N1CCCCC1
- IC50 [1]: > 99000 nM (inactive)
- IC50 [2]: > 99000 nM (inactive)
- IC50 [3]: > 99000 nM (inactive)
- IC50 [4]: > 99000 nM (inactive)

Structure (SMILES): O=[N+]([O-])c1ccc(C2=NN(c3ccccc3)C(c3ccco3)C2)cc1 (stereo not given)
- EC50 [5]: 500 nM (active)
- IC50 [6]: 2640 nM (active)
- IC50 [7]: 3780 nM (active)
- IC50 [8]: > 49700 nM (inactive)
- EC50 [9]: 400 nM (active)
- EC50 [10]: 2600 nM (active)
- IC50 [11]: 2490 nM (active)
- EC50 [12]: < 500 nM (active)
- EC50 [13]: 1500 nM (active)
- EC50 [14]: 3100 nM (active)

Structure (SMILES): CN(C)C(=O)Oc1noc2cc(Cl)ccc12
- IC50 [15]: 234 nM (active)
